Results reported in US20240182445A1 (ONO PHARMACEUTICAL CO., LTD., priority 2019, published 2024).

Molecular target: T1, human TREK-1 (Homo sapiens, UniProt O95069)
T1 construct: expressed in transfected cells
T1 sequence (O95069 1-426): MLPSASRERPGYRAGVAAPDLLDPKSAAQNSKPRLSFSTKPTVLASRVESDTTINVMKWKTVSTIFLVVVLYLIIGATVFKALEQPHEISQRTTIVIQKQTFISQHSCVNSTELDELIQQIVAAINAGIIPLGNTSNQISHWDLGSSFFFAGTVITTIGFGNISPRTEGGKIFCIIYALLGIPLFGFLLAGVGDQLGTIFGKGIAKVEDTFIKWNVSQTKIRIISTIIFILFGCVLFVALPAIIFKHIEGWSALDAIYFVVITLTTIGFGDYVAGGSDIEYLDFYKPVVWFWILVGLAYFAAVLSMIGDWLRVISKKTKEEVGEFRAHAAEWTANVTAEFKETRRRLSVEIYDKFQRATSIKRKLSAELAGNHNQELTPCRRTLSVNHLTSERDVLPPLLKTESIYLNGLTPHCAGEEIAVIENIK
Assay: TREK-1 Thallium (Tl+) flux assay, Method 1
Assay type: cell-based
Conditions: TREK-1 Thallium (Tl+) flux assay, Method 1
Procedure, shortened: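 CHO-K1 cells stably expressing human TREK-1, loaded with Thallos dye, received compound or 0.3% DMSO vehicle for 10 min before thallium stimulus buffer. ΔRatio is fluorescence at 25 s after thallium addition over mean pre-addition fluorescence; % inhibition calculated from it.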

IC50	SMILES
2.16 µM	Cc1cc(OCc2ccccc2)ccc1NC(=O)c1c(Cl)cnn1C1CCN(C(=O)C2CCC2)CC1 [Compound 402, N-(4-(benzyloxy)-2-methylphenyl)-4-chloro-1-(1-(cyclobutanecarbonyl)piperidin-4-yl)-1H-pyrazole-5-carboxamide]
6.35 µM	Cc1cc(OCc2ccccc2)ccc1NC(=O)c1c(Cl)cnn1C1CCN(C(=O)OC(C)(C)C)CC1 [Compound 430, tert-butyl 4-(5-((4-(benzyloxy)-2-methylphenyl)carbamoyl)-4-chloro-1H-pyrazol-1-yl)piperidine-1-carboxylate]
1.78 µM	Cc1cc(OCc2ccccc2)ccc1NC(=O)c1c(Cl)cnn1C1CCN(C(=O)C2CC2)CC1 [Compound 400, N-(4-(benzyloxy)-2-methylphenyl)-4-chloro-1-(1-(cyclopropanecarbonyl)piperidin-4-yl)-1H-pyrazole-5-carboxamide]

SMILES	IC50
CCCCOc1ccc(-c2cnc(NC(=O)c3c(Cl)cnn3C3CCN(C(C)=O)CC3)c(C)c2)cc1 [Compound 416, 1-(1-acetylpiperidin-4-yl)-N-(5-(4-butoxyphenyl)-3-methylpyridin-2-yl)-4-chloro-1H-pyrazole-5-carboxamide]	4.07 µM

Same assay, conditions: TREK-1 Thallium (Tl+) flux assay; no *^12 (Method 2) mark on these rows

IC50	SMILES
0.54 µM	CC(C)(C)OC(=O)N1CCC(n2ncc(Cl)c2C(=O)Nc2c(F)cc(C#Cc3ccccc3)cc2F)C1 (centres unmarked) [Compound 297, tert-butyl 3-(4-chloro-5-((2,6-difluoro-4-(phenyethynyl)phenyl)carbamoyl)-1H-pyrazol-1-yl)pyrroldine-1-carboxylate]
0.31 µM	Cc1cc(C#Cc2cccc(F)c2)cnc1NC(=O)c1c(Cl)cnn1C1CCN(C(=O)C(C)(C)C)CC1 [Compound 205, 4-chloro-N-(5-((3-fluorophenyl)ethynyl)-3-methylpyridin-2-yl)-1-(1-pivaloylpiperidin-4-yl)-1H-pyrazole-5-carboxamide]
0.57 µM	Cc1cc(C#Cc2ccccc2)cnc1NC(=O)c1c(Cl)cnn1-c1ccc2occc2c1 [Compound 304, 1-(benzofuran-5-yl)-4-chloro-N-(3-methyl-5-(phenylethynyl)pyridin-2-yl)-1H-pyrazole-5-carboxamide]
0.58 µM	Cc1cc(C#Cc2ccc(F)cc2)cnc1NC(=O)c1c(Cl)cnn1C1CC2(CCN(C(=O)C3COCCO3)C2)C1 (centres unmarked) [Compound 310, 4-chloro-1-[6-(1,4-dioxane-2-carbonyl)-6-azaspiro[3.4]octan-2-yl]-N-{5-[(4-fluorophenyl)ethynyl]-3-methylpyridin-2-yl}-1H-pyrazole-5-carboxamide]
0.66 µM	Cc1cc(C#Cc2ccc(F)cc2)cnc1NC(=O)c1c(Cl)cnn1C1CC2(CCN(C(=O)C(C)C)C2)C1 (centres unmarked) [Compound 332, 4-chloro-N-{5-[(4-fluorophenyl)ethynyl]-3-methylpyridin-2-yl}-1-[6-(2-methylpropanoyl)-6-azaspiro[3.4]octan-2-yl]-1H-pyrazole-5-carboxamide]
0.37 µM	Cc1cc(C#Cc2ccccc2)cnc1NC(=O)c1c(Cl)cnn1C(C)CNC(=O)OC(C)(C)C (centres unmarked) [Compound 239, tert-butyl (2-(4-chloro-5-((3-methyl-5-(phenylethynyl)pyridin-2-yl)carbamoyl)-1H-pyrazol-1-yl)propyl)carbamate]
0.31 µM	O=C(Nc1c(F)cc(C#Cc2ccccc2)cc1F)c1c(Cl)cnn1[C@H]1CCOC1 [Compound 199, (S)-4-chloro-N-(2,6-difluoro-4-(phenylethnyl)phenyl)-1-(tetrahydrofuran-3-yl)-1H-pyrazole-5-carboxamide]
0.89 µM	COc1c(F)cc(-c2cnc(NC(=O)c3c(Cl)cnn3C3CCN(C(=O)OC(C)(C)C)CC3)c(C)c2)cc1F [Compound 386, tert-butyl 4-(4-chloro-5-((5-(3,5-difluoro-4-methoxyphenyl)-3-methylpyridin-2-yl)carbamoyl)-1H-pyrazol-1-yl)piperidine-1-carboxylate]

Same assay, conditions: TREK-1 Thallium (Tl+) flux assay; values without footnote *12 are Method 1

IC50	SMILES
0.16 µM	Cc1cc(C#Cc2ccccc2)cnc1NC(=O)c1c(Cl)cnn1C1CCN(C(=O)C2CC2)C1 (centres unmarked) [Compound 79, 4-chloro-1-(1-(cyclopropanecarbonyl)pyrrolidin-3-yl)-N-(3-methyl-5-(phenylethynyl)pyridin-2-yl)-1H-pyrazole-5-carboxamide]
0.16 µM	Cc1cc(C#Cc2ccccc2)cnc1NC(=O)c1c(Cl)cnn1C(C)C1CCN(C(=O)OC(C)(C)C)CC1 (centres unmarked) [Compound 77, tert-butyl 4-(1-(4-chloro-5-((3-methyl-5-(phenylethynyl)pyridin-2-yl)carbamoyl)-1H-pyrazol-1-yl)ethyl)piperidine-1-carboxylate]
0.1 µM	CC(=O)N1CCC(C(C)n2ncc(Cl)c2C(=O)Nc2ncc(C#Cc3ccccc3)cc2C)CC1 (centres unmarked) [Compound 32, 1-(1-(1-acetylpiperidin-4-yl)ethyl)-4-chloro-N-(3-methyl-5-(phenylethynyl)pyridin-2-yl)-1H-pyrazole-5-carboxamide]
0.24 µM	CC(=O)N1CCC(Cn2ncc(Cl)c2C(=O)Nc2ncc(C#Cc3cccc(F)c3)cc2C)CC1 [Compound 150, 1-((1-acetylpiperidin-4-yl)methyl)-4-chloro-N-(5-((3-fluorophenyl)ethynyl)-3-methylpyridin-2-yl)-1H-pyrazole-5-carboxamide]
0.21 µM	Cc1cc(C#Cc2ccc(F)cc2)cnc1NC(=O)c1c(Cl)cnn1[C@H]1CC[C@@H](NC(=O)C(C)C)CC1 [Compound 125, 4-chloro-N-(5-((4-fluorophenyl)ethynyl)-3-methylpyridin-2-yl)-1-(cis-4-isobutyramidocyclohexyl)-1H-pyrazole-5-carboxamide]
0.29 µM	Cc1cc(C#Cc2ccccc2)cnc1NC(=O)c1c(Cl)cnn1CC1CCN(C(=O)OC(C)(C)C)CC1 [Compound 186, tert-butyl 4-((4-chloro-5-((3-methyl-5-(phenylethynyl)pyridin-2-yl)carbamoyl)-1H-pyrazol-1-yl)methyl)piperidine-1-carboxylate]
0.19 µM	CC(C)(C)C(=O)N1CCC(n2ncc(Cl)c2C(=O)Nc2ncc(C#Cc3ccccc3)cc2F)CC1 [Compound 100, 4-chloro-N-(3-fluoro-5-(phenylethynyl)pyridin-2-yl)-1-(1-pivaloylpiperidin-4-yl)-1H-pyrazole-5-carboxamide]
0.15 µM	CCC(=O)N1CCC(n2ncc(Cl)c2C(=O)Nc2ncc(C#Cc3ccc(F)cc3)cc2C)CC1 [Compound 66, 4-chloro-N-(5-((4-fluorophenyl)ethynyl)-3-methylpyridin-2-yl)-1-(1-propionylpiperidin-4-yl)-1H-pyrazole-5-carboxamide]
0.16 µM	CCNC(=O)N1C[C@H]2C[C@H](n3ncc(Cl)c3C(=O)Nc3ncc(C#Cc4cccs4)cc3C)C[C@H]2C1 [Compound 74, (3aR,5s,6aS)-5-[4-chloro-5-({3-methyl-5-[(thiophen-2-yl)ethynyl]pyridin-2-yl}carbamoyl)-1H-pyrazol-1-yl]-N-ethylhexahydrocyclopenta[c]pyrrole-2(1H)-carboxamide]
0.12 µM	CC(=O)N1CCC(n2ncc(Cl)c2C(=O)Nc2c(C)cc(C#Cc3ccccc3)cc2F)CC1 [Compound 37, 1-(1-acetylpiperidin-4-yl)-4-chloro-N-(2-fluoro-6-methyl-4-(phenylethynyl)phenyl)-1H-pyrazole-5-carboxamide]
0.28 µM	Cc1cc(C#Cc2ccccc2)cnc1NC(=O)c1c(Cl)cnn1[C@H]1C[C@H](NC(=O)C(C)C)C1 [Compound 183, 4-chloro-1-(trans-3-isobutyramidocyclobutyl)-N-(3-methyl-5-(phenylethynyl)pyridin-2-yl)-1H-pyrazole-5-carboxamide]
